One may read the IC50 as the point on the concentration scale where inhibition reaches its midpoint. A higher IC50 goes with weaker potency.

The structures appear in SMILES notation.

This is an account of results in PubChem BioAssay AID2305 (GlaxoSmithKline (GSK), 2010).

In the assay the test system is P. falciparum 3D7 growth, pLDH absorbance. The assay is described as follows: blood-stage malaria parasite growth potency – strain 3D7, dose response (AID 2305).
Take `CCOc1ccc(-n2nc3c(Cl)nnc(-c4ccccc4)c3c2-c2ccccc2)cc1`: the IC50 worked out at 230 nM.

As to `Cc1cc(N)c2cc(NC(=O)/C=C/c3ccc([N+](=O)[O-])cc3)ccc2n1`, the IC50 was 670 nM.

As to `Cc1[nH]c(C)c(-c2ccc(C(=O)c3ccc(Cl)cc3)cc2)c(=O)c1Cl`, the IC50 turned out to be 530 nM. This IC50 and that of the compound before are within 1.5-fold of each other.

As to `COc1ccc(NC(=O)C2CCN(CCCCCNC(=O)/C=C/c3ccc(Cl)c(Cl)c3)CC2)cc1`, the IC50 stood at 830 nM. This IC50 lies about 1.6-fold higher than the previous one.

Take `O=C(CNC(=O)c1ccc(O)cc1)Nc1ccc(-c2cccc(-c3nc4ccc(C(F)(F)F)cc4[nH]3)c2)cc1`: the IC50 is 860 nM.

In turn, `NC(=O)c1ccccc1Nc1nc(Nc2cccc(N3CCN(CCO)CC3)c2)ncc1Cl` had an IC50 of 40 nM.

For `O=[N+]([O-])c1cccc(-n2nc(NCc3ccc(Cl)cc3)nc2-c2ccc(F)c(C(F)(F)F)c2)c1`, the IC50 was 240 nM.

In turn, `CC[C@H]1CN2CC[C@@H]1C[C@H]2[C@H](O)c1cc(N2CCC(c3ccccc3)CC2)nc2ccc(OC)cc12` showed an IC50 of 350 nM.

Regarding `Clc1ccc2c(NN=Cc3ccccc3)ccnc2c1`, the IC50 came to 760 nM.

In turn, `CCc1cc2c3c(N)nc(N)nc3ccc2n1C(C)(C)C` yielded an IC50 of 10 nM. This IC50 is about 76-fold lower than that of the compound before.

`CCOC(=O)c1c(CN2CCCC2)n(-c2ccccc2)c2cc(Br)c(O)cc12` displayed an IC50 of 1010 nM.

The compound `FC(F)(F)c1cccc2c(NN=Cc3ccccc3)ccnc12` returned an IC50 of 620 nM.

`COc1ccccc1C1CC(c2ccc(Br)cc2)=NN1C(=O)c1ccccc1` (centres undefined) came in with an IC50 of 1110 nM.

Take `COc1cc(C(=O)N2CCOC(CCN3CCC(c4ccc(Cl)cc4)CC3)(c3ccc(Cl)c(Cl)c3)C2)cc(OC)c1OC` (centres undefined): the IC50 is 180 nM.

`COc1cccc(CN2CCC(CCOC(c3ccccc3)c3ccc(Cl)cc3)CC2)c1O` (centres undefined) registered an IC50 of 710 nM. Against the preceding compound, the IC50 is about 3.9-fold higher.

Consider `O=C(Nc1ccc(-c2nc3cc4ccccc4cc3[nH]2)cc1)c1cccc(Br)c1`, for which the IC50 was 360 nM. This IC50 lies about 2-fold lower than the previous one.

`COc1ccc(CCC(C)N2C[C@@H](N)[C@H](c3cn(C)c4cnccc34)C2)cc1` (some centres undefined) showed an IC50 of 1360 nM. This IC50 lies about 3.8-fold higher than the previous one.

The compound `Cc1ccc(C)c(Cn2ccc3nc(Cl)nc(Cl)c32)c1` yielded an IC50 of 910 nM.

`COc1ccc(-c2ccc(NC(=O)c3cccc(Cl)c3)cc2)cc1CN1CCC(O)CC1` had an IC50 of 710 nM.

As to `CN1CCN(c2ccnc3ccc(NC(=O)Nc4cccc(C#N)c4)cc23)CC1`, the IC50 came out at 800 nM. The IC50 values of the last two compounds are within 1.5-fold of each other.

Regarding `NC(=NCCCc1ccccc1)c1cccc(C(N)=NCCCc2ccccc2)n1`, the IC50 was 1380 nM.

Compound `O=C(NCCCCN1CCC(O)(c2ccc(Cl)cc2)CC1)c1ccc(Br)cc1` registered an IC50 of 1250 nM.

Turning to `O=S(=O)(c1cccc(Br)c1)N1CCCCC(c2ccc(C(F)(F)F)cc2)=N1`, the IC50 came to 550 nM.

`O=C(Nc1ccc(-c2cccc(-c3nc4ccc(F)cc4[nH]3)c2)cc1)c1cnn2cccnc12` returned an IC50 of 650 nM.

On to `C=CCNC(=O)C(C)c1ccc2cc(OC)ccc2c1` (centres undefined), for which the IC50 turned out to be 420 nM.

With `NC1=NC(c2ccccc2)N(c2ccccc2)C(N)=N1` (centres undefined), the IC50 is 290 nM.

Regarding `Cc1cc(=O)c(-c2ccc(OCc3ccc(Cl)cc3)cc2)c(C)[nH]1`, the IC50 was 730 nM.

On to `Cc1onc(-c2c(Cl)cccc2Cl)c1C(=O)N1CCc2cc3nccc(N4CCN5CCC[C@H]5C4)c3cc21`, for which the IC50 was 770 nM.

In turn, `Cn1cc(CN2CCCC(COC(c3ccc(F)cc3)c3ccc(F)cc3)C2)cn1` (centres undefined) came in with an IC50 of 570 nM. The IC50 values of the last two compounds are within 1.5-fold of each other.

`COc1cc(Cn2ccc3c4c(N)nc(N)nc4ccc32)cc(OC)c1OC` gave an IC50 of 10 nM.

In turn, `CS(=O)(=O)Cc1ccc(Nc2nccc(-c3c(-c4cccc(NC(=O)c5c(F)cccc5F)c4)nn4ccccc34)n2)cc1` returned an IC50 of 150 nM.

Compound `CCCCCCCNc1cc(C)nc2ccc(OC)cc12` yielded an IC50 of 670 nM. Against the preceding compound, the IC50 is about 4.5-fold higher.

Take `CCNc1cc(C(=O)N[C@@H](Cc2ccccc2)[C@H](O)CNC2CCC(C)(C)CC2)cc(N2CCCCS2(=O)=O)c1`: the IC50 amounted to 650 nM. The IC50 values of the last two compounds are within 1.5-fold of each other.

Take `Oc1ccc(Cl)c2c1C(c1ccccc1)=NCC2`: the IC50 was found to be 540 nM.

Take `Fc1ccc(Nc2n[nH]c(CNC3CCN(Cc4ccc(Cl)c(Cl)c4)CC3)n2)cc1`: the IC50 was 1380 nM.

`OCCCCCCNc1ccnc2[nH]c3ccc(I)cc3c12` gave an IC50 of 1070 nM.

Compound `CN1CCN(c2nsc3ccc(-c4ccc(NC(=O)Nc5cc(C(F)(F)F)ccc5F)cc4)cc23)CC1` had an IC50 of 240 nM.

`O=C(Cc1cnc[nH]1)Nc1cccc(-c2ccc(-c3nc4ccc(C(F)(F)F)cc4[nH]3)s2)c1`: the IC50 turned out to be 770 nM. This IC50 is about 3.2-fold higher than that of the compound before.

Regarding `Cc1ccc(Cc2cccc3nc(N)nc(N)c23)cc1`, the IC50 was determined as 1150 nM.

Turning to `COc1ccc2nc(-c3ccccc3)cc(NN=Cc3ccc([N+](=O)[O-])o3)c2c1`, the IC50 was found to be 200 nM. Against the preceding compound, the IC50 is about 5.8-fold lower.

`COc1cc(F)c2ncc(F)c(CCN3C[C@H](CNCc4ccc5c(n4)NC(=O)CS5)[C@H](O)C3)c2c1` had an IC50 of 460 nM. This IC50 is about 2.3-fold higher than that of the compound before.

The compound `CN(Cc1ccc(NC(=O)CCC2CCN(C(=O)/C=C/c3ccc(Cl)c(Cl)c3)CC2)cc1)C1CCOCC1` gave an IC50 of 1730 nM.

Turning to `CCCCc1ccc(C(=O)Nc2ccc3nc(N4CCN(CC)CC4)cc(C)c3c2)cc1`, the IC50 came out at 910 nM. This IC50 lies about 1.9-fold lower than the previous one.

`CC(=O)c1cccc2[nH]c(C(=O)NC3CCC(CCN4CCc5ccc(C#N)cc5C4)CC3)cc12` (centres undefined) showed an IC50 of 840 nM. This IC50 and that of the compound before are within 1.5-fold of each other.

Compound `NCC1CCCN1Cc1cccc(-c2ccc(-c3nc4ccc(C(F)(F)F)cc4[nH]3)cc2)c1` (centres undefined) gave an IC50 of 780 nM.

With `Cc1cc([N+](=O)[O-])ccc1N1CCN(CCCCNC(=O)c2ccc(NC(=O)c3ccc(Cl)cc3)cc2)CC1`, the IC50 was determined as 890 nM.

`N[C@@H](COc1cccc2c(-c3ccncc3)c(-c3cccc(NC(=O)Nc4ccccc4)c3)nn12)c1ccccc1` displayed an IC50 of 410 nM.

For `Cc1ccc(S(=O)(=O)NC2CCN(c3ccnc4cc(Cl)ccc34)C2)cc1` (centres undefined), the IC50 is 620 nM.

`CCNCCCC(C)Nc1ccnc2cc(Cl)ccc12` (centres undefined) gave an IC50 of 200 nM.

For the compound `S=C(Nc1ccccc1Cl)NC1CCC(CN2CCC(c3c[nH]c4ccccc34)CC2)CC1` (centres undefined), the IC50 is 1050 nM.

Compound `COc1ccc2nccc([C@@H](O)CN3CCC(NC(=O)/C=C/c4cc(F)cc(Br)c4)CC3)c2c1` displayed an IC50 of 170 nM.

Turning to `O=C(C=Cc1ccc(-c2ccccc2)cc1)N1CCC(CCN2CCC(c3c[nH]c4ccccc34)CC2)CC1`, the IC50 came out at 1120 nM.

As for `COc1ccc(CNC2CCN(C)CC2)cc1-c1ccc(S(=O)(=O)NCc2ccccc2)s1`, the IC50 came to 230 nM.

As to `CN1CCN(CC(O)CNC(=O)Nc2ccc(Cl)cc2)CC1` (centres undefined), the IC50 is 230 nM.

`Nc1cccc(CNCc2ccc(-c3ccc(-c4nc5ccccc5[nH]4)s3)cc2)c1` had an IC50 of 570 nM.

`Cc1cccc2[nH]c(-c3cccc(-c4ccc(NC(=O)C5CCCO5)cc4)c3)nc12` (centres undefined): the IC50 came to 900 nM.

Turning to `CCN1CCN(c2ccc(Nc3ccnc4ccc(Br)cc34)cc2)CC1`, the IC50 was determined as 300 nM.

On to `O=C(Nc1ccccc1Cl)N(Cc1cc(Cl)cc(Cl)c1)CC(O)COc1ccc(Cl)c(F)c1` (centres undefined), for which the IC50 was 790 nM.

`Cc1ccc(CC(C)NC[C@H](O)c2cccc(Cl)c2)cc1` (some centres undefined) gave an IC50 of 860 nM. This IC50 and that of the compound before are within 1.5-fold of each other.

In turn, `N#Cc1cnc(Nc2ccc(Oc3ccccc3)cc2)nc1Nc1cccc(S(N)(=O)=O)c1` came in with an IC50 of 550 nM.

As to `Clc1ccccc1CCNCC1CCN(CC2CCCCC2)CC1`, the IC50 came to 690 nM.

The compound `CC(O)C1CCCCN1C(=O)c1ccc(-c2ccc(-c3nc4ccccc4[nH]3)s2)cc1` (centres undefined) came in with an IC50 of 970 nM.

Take `Oc1ccc(CCCc2cc(Oc3c(I)cc(CCc4ncc[nH]4)cc3I)ccc2O)cc1`: the IC50 turned out to be 870 nM.

The compound `COc1ccc(-c2nc(NC(=O)COc3ccc(C(C)=O)cc3)sc2C)cc1` came in with an IC50 of 710 nM.

Compound `CCCNCc1ccc(-c2ccc(CN(CCOC)C(=O)c3ccc([N+](=O)[O-])c(C)c3)cc2)nc1` showed an IC50 of 870 nM.

The compound `C=CCO[C@@H]1O[C@H](COC(c2ccccc2)(c2ccccc2)c2ccccc2)[C@@H](OC(C)=O)[C@H](OC(C)=O)[C@H]1NC(C)=O` had an IC50 of 660 nM.

With `Cc1ccc2nc(C)n(C3CCN(C(=O)Cc4ccccc4C)CC3)c2c1`, the IC50 came out at 240 nM. Against the preceding compound, the IC50 is about 2.8-fold lower.

The compound `Cc1cccc(-n2nc(C)c3c2NC(=O)CC3C(=O)c2ccc(Cl)s2)c1` (centres undefined) displayed an IC50 of 470 nM.

`Oc1ccc(Nc2ccnc3cc(Cl)ccc23)cc1` gave an IC50 of 740 nM.

Consider `O=C(Nc1ccc(OC(F)(F)F)cc1)NC1CCN(c2ccnc3ccccc23)C1` (centres undefined), for which the IC50 was found to be 240 nM.

As for `O=C(Nc1cccc(-c2ccc(-c3nc4ccc(C(F)(F)F)cc4[nH]3)cc2)c1)c1csnn1`, the 50% inhibitory concentration (IC50) was 690 nM.

In the case of `CS(=O)(=O)CCNCc1ccc(-c2ccc3c(Nc4ccc(Oc5ccccn5)cc4)ccnc3c2)o1`, the IC50 turned out to be 710 nM.

As to `N#Cc1cccc(C(O)CN(Cc2ccccc2)Cc2ccccc2)c1` (centres undefined), the IC50 is 1270 nM. This IC50 is about 1.8-fold higher than that of the compound before.

In the case of `COc1ccc2ncc(F)c([C@@H](O)CN3CCC(NCc4ccc5c(c4)NCCS5)CC3)c2n1`, the IC50 was found to be 500 nM.

In turn, `O=c1[nH]c2ccc(Nc3nccc(NCCc4ccccc4)n3)cc2[nH]1` gave an IC50 of 1210 nM.

`Cc1cccc2[nH]c(-c3ccc(-c4cccc(CN5CCCCC5)c4)s3)nc12` yielded an IC50 of 470 nM.

Regarding `C/C=C1/CN2CC[C@H]1C[C@H]2[C@H](O)c1ccnc2ccc(O)cc12`, the IC50 was determined as 490 nM.

`COc1ccc(CC(=O)Nc2ccc(Nc3nc(C)cc(N4CCCC4)n3)cc2)cc1` registered an IC50 of 1110 nM.

Compound `CN(C(=O)/C=C/c1ccccc1F)C1CCN(CCCCCNC(=O)/C=C/c2ccc(Cl)c(Cl)c2)CC1` came in with an IC50 of 510 nM.

With `Nc1nc(N)c2c(ccc3c2ccn3CCCC(F)(F)F)n1`, the IC50 was 100 nM. This IC50 is about 5.1-fold lower than that of the compound before.

`CN1CCC(NCCS(=O)(=O)c2cccc(Nc3ccc(-c4cccc(F)c4)cn3)c2)CC1` gave an IC50 of 1360 nM.

In the case of `COc1ccc(-n2nc(C)c3c2NC(=O)CC3c2ccccc2OCc2ccccc2F)cc1` (centres undefined), the IC50 came to 900 nM.

`Cc1c(CCc2cccc(F)c2F)[nH]c2ccccc2c1=O` yielded an IC50 of 820 nM.

`COc1ccc2ncc(F)c(CCN3CC[C@@H](CNCc4nc5c(cc4C)SCC(=O)N5)C3)c2n1` yielded an IC50 of 1150 nM. The IC50 values of the last two compounds are within 1.5-fold of each other.

Compound `CCc1cc2c(Sc3nnc(N)s3)ncnc2s1` showed an IC50 of 660 nM.

`Oc1cccc(Nc2nc(NCC3CCCO3)c3ccccc3n2)c1` (centres undefined): the IC50 stood at 810 nM.

For `CC[C@H]1CN2CC[C@H]1C[C@H]2[C@H](O)c1cc(-c2ccc(F)cc2)nc2ccc(OC)cc12`, the IC50 was determined as 50 nM.

Turning to `COc1ccc2nccc([C@@H](O)CN3CC[C@H](NCc4nc5c(cc4Cl)OCC(=O)N5)[C@H](F)C3)c2c1`, the IC50 amounted to 1320 nM.

For `CC(C)(C)Nc1cc(C(=O)N[C@@H](Cc2ccccc2)[C@H](O)CNC2CCOCC2)cc(N2CCCCS2(=O)=O)c1`, the IC50 is 150 nM.
